Assay results published in US9896441B2 (Lycera Corporation, priority 2014, dated 2018).

What was measured:
[1] = biological target: T1, Gal4-RORγ-LBD (Homo sapiens, UniProt P51449); test: Gal4-RORγ Luciferase Reporter Assay in HEK-293T Cells; assay type: cell-based; settings: HEK-293 cells; for Gal4-RORγ Assay Max Response: maximum response
T1 construct: expressed in transfected cells
T1 sequence (P51449 269-508 limits assumed): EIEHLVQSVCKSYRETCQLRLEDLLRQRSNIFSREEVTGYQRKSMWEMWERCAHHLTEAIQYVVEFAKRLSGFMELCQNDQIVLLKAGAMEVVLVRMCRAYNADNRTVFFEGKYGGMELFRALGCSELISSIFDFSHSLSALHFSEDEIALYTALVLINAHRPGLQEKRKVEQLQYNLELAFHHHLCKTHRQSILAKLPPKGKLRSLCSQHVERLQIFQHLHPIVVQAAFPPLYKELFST
In short: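 Max Response was taken as the upper plateau of a 4-parameter logistic fit of luciferase signal, normalized to 100 for wells without ursolic acid or compound. Transiently Gal4-RORγ-LBD/Gal4-luc transfected HEK-293 cells carrying […] ursolic acid were incubated with test compounds (0.2% DMSO) overnight at 37 °C and read with One-Glo.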

[2] = biological target: T2, RORγ-LBD (Homo sapiens, UniProt P51449); test: RORγ-Ligand Binding Domain (LBD) TR-FRET Assay; assay type: biochemical; settings: for TR-FRET Assay Max Response: maximum response;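 as to TR-FRET Assay Max Response: 665/615 nm signal ratio set to 100 without ursolic acid or test compound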
T2 construct: made in house; host or cells: SF9 cells (baculovirus); used as diluted lysate
T2 sequence (P51449 269-508 limits assumed): T1 sequence (P51449 269-508 limits assumed)
In short: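 TR-FRET read-out using a biotin-tagged SRC1 coactivator LXXLL peptide (200 nM final), with the antagonist ursolic acid present at 2 μM final. Receptor is His-tagged LBD expressed in SF9 cells, ~3 nM final in pH 7.0 Tris/KCl/EDTA/DTT/BSA buffer; compounds in 1% DMSO final.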

[3] = luciferase reporter, in presence of ursolic acid
[4] = luciferase reporter, with ursolic acid

Structure (SMILES)	EC50 [1, 4] [nM]	EC50 ([2]; RORγ-LBD TR-FRET) [nM]	other results
COc1cc(S(=O)(=O)N2C[C@H](CCNC(=O)C(=O)O)Oc3ccc(/C=C(\C)c4c(F)cccc4Cl)cc32)ccc1F [Example 116K, (S,E)-2-((2-(6-(2-(2-chloro-6-fluorophenyl)prop-1-en-1-yl)-4-((4-fluoro-3-methoxyphenyl)sulfonyl)-3,4-dihydro-2H-benzo[b][1,4]-oxazin-2-yl)ethyl)amino)-2-oxoacetic acid]			EC50 [1, 3]: 500 to 5000 nM; Gal4-RORγ Assay Max Response [1, 3]: ** (a value in the range of greater than 90 to 150); EC50 ([2]; RORγ-LBD TR-FRET assay): < 500 nM; TR-FRET Assay Max Response ([2]; RORγ-LBD TR-FRET assay): *** (a value in the range of greater than 150 to 200)
O=C(O)CC[C@H]1CN(S(=O)(=O)c2cccc(C(F)(F)F)c2)c2cc(C=C3CCOCC3)ccc2O1 [Example 95N, (S)-3-(6-((tetrahydro-4H-pyran-4-ylidene)methyl)-4-((3-(trifluoromethyl)phenyl)sulfonyl)-3,4-dihydro-2H-benzo[b][1,4]oxazin-2-yl)propanoic acid]	500 to 5000	< 500	
COC(=O)CC[C@H]1CN(S(=O)(=O)c2cc(F)cc(C(F)(F)F)c2)c2cc(/C=C(\C)c3c(F)cccc3Cl)ccc2O1 [Example 86AR, (S,E)-methyl 3-(6-(2-(2-chloro-6-fluorophenyl)prop-1-en-1-yl)-4-((3-fluoro-5-(trifluoromethyl)-phenyl)sulfonyl)-3,4-dihydro-2H-benzo[b][1,4]oxazin-2-yl)propanoate]	500 to 5000	< 500	
CCOc1nn(CC)cc1S(=O)(=O)N1C[C@H](CCC(=O)O)Oc2ccc(/C=C/c3ncccc3F)cc21 [Example 89W, (S,E)-3-(4-((3-ethoxy-1-ethyl-1H-pyrazol-4-yl)sulfonyl)-6-(2-(3-fluoropyridin-2-yl)vinyl)-3,4-dihydro-2H-benzo[b][1,4]-oxazin-2-yl)propanoic acid]	> 10000	5000 to 10000	
CCOc1ncc(C(F)(F)F)cc1S(=O)(=O)N1C[C@H](CCC(=O)O)Oc2ccc(/C=C/c3c(OC)cccc3C(F)(F)F)cc21 [Example 89ET, (S,E)-3-(4-((2-ethoxy-5-(trifluoromethyl)pyridin-3-yl)sulfonyl)-6-(2-methoxy-6-(trifluoromethyl)styryl)-3,4-dihydro-2H-benzo[b][1,4]-oxazin-2-yl)propanoic acid]	< 500	< 500	
C[C@@H]1C/C(=C\c2ccc3c(c2)N(S(=O)(=O)c2cc(C(F)(F)F)cnc2OCCO)C[C@H](CCC(=O)O)O3)C[C@H](C)C1 [Example 95AA, 3-((S)-6-((E)-((3R,5S)-3,5-dimethylcyclohexylidene)-methyl)-4-((2-(2-hydroxy-ethoxy)-5-(trifluoromethyl)-pyridin-3-yl)sulfonyl)-3,4-dihydro-2H-benzo[b][1,4]oxazin-2-yl)propanoic acid]	500 to 5000	< 500	
C/C(=C\c1ccc2c(c1)N(S(=O)(=O)c1cccc(C(F)(F)F)c1)C[C@H](CCC(=O)N1CCCC1)O2)c1c(F)cccc1Cl [Example 126, (S,E)-3-(6-(2-(2-Chloro-6-fluorophenyl)prop-1-en-1-yl)-4-((3-(trifluoromethyl)phenyl)sulfonyl)-3,4-dihydro-2H-benzo[b][1,4]oxazin-2-yl)-1-(pyrrolidin-1-yl)propan-1-one]			EC50 [1, 3]: < 500 nM; Gal4-RORγ Assay Max Response [1, 3]: ** (a value in the range of greater than 90 to 150); EC50 ([2]; RORγ-LBD TR-FRET assay): < 500 nM; TR-FRET Assay Max Response ([2]; RORγ-LBD TR-FRET assay): ** (a value in the range of greater than 90 to 150)
COC(=O)CC[C@H]1CN(S(=O)(=O)c2cccc(C(F)(F)F)c2)c2cc(/C=C(\C)c3c(F)cccc3Cl)c(F)cc2O1 [Example 41, (S,E)-Methyl 3-(6-(2-(2-chloro-6-fluorophenyl)prop-1-en-1-yl)-7-fluoro-4-((3-(trifluoromethyl)phenyl)sulfonyl)-3,4-dihydro-2H-benzo[b][1,4]oxazin-2-yl)propanoate]	< 500	< 500	
CCOC(=O)[C@@H]1Cc2ccc(OCc3c(F)cccc3Cl)cc2N(S(=O)(=O)c2ccc(F)c(OC)c2)[C@@H]1C			EC50 ([1]; ursolic acid present, luciferase readout): 500 to 5000 nM; EC50 ([2]; with 2 μM ursolic acid (RORγ antagonist), highest test concentration 10 μM): < 500 nM
CCOc1nn(CC)cc1S(=O)(=O)N1C[C@H](CCC(=O)O)Oc2ccc(/C=C/c3ccccc3SC)cc21 [Example 89AU, (S,E)-3-(4-((3-ethoxy-1-ethyl-1H-pyrazol-4-yl)sulfonyl)-6-(2-(methylthio)styryl)-3,4-dihydro-2H-benzo[b][1,4]oxazin-2-yl)propanoic acid]	< 500	< 500	
COc1cc(S(=O)(=O)N2CCCc3ccc(OCc4c(C)cccc4Cl)cc32)ccc1F [Example 25W, 7-((2-chloro-6-methylbenzyl)oxy)-1-((4-fluoro-3-methoxyphenyl)sulfonyl)-1,2,3,4-tetrahydroquinoline]	< 500	< 500	
N#Cc1cccc(/C=C/c2ccc3c(c2)N(S(=O)(=O)c2cccc(C(F)(F)F)c2)C[C@H](CCC(=O)O)O3)c1F [Example 89BW, (S,E)-3-(6-(3-cyano-2-fluorostyryl)-4-((3-(trifluoromethyl)phenyl)sulfonyl)-3,4-dihydro-2H-benzo[b][1,4]oxazin-2-yl)propanoic acid]	> 10000	< 500	
C/C(=C\c1cc2c(cc1F)O[C@@H](CCC(=O)O)CN2S(=O)(=O)c1cccc(OC(F)F)c1)c1c(F)cccc1Cl [Example 44, (S,E)-3-(6-(2-(2-Chloro-6-fluorophenyl)prop-1-en-1-yl)-4-((3-(difluoromethoxy)phenyl)sulfonyl)-7-fluoro-3,4-dihydro-2H-benzo[b][1,4]oxazin-2-yl)propanoic acid]	500 to 5000	< 500	
O=C(O)CC[C@H]1CN(S(=O)(=O)c2cc(C(F)(F)F)cnc2OCCCO)c2cc(/C=C/c3c(F)cccc3Cl)ccc2O1 [Example 89FC, (S,E)-3-(6-(2-chloro-6-fluorostyryl)-4-((2-(3-hydroxypropoxy)-5-(trifluoromethyl)pyridin-3-yl)sulfonyl)-3,4-dihydro-2H-benzo[b][1,4]-oxazin-2-yl)propanoic acid]	500 to 5000	< 500	
O=C(O)CC[C@H]1CN(S(=O)(=O)c2cccc(C(F)(F)F)c2)c2cc(C=C3CCCCC3)ccc2O1 [Example 91, (S)-3-(6-(Cyclohexylidenemethyl)-4-((3-(trifluoromethyl)phenyl)sulfonyl)-3,4-dihydro-2H-benzo[b][1,4]oxazin-2-yl)propanoic acid]	500 to 5000	< 500	
CCn1cc(S(=O)(=O)N2C[C@H](CNC(C)=O)Oc3ccc(/C=C/c4ncccc4Cl)cc32)c(Cl)n1 [Example 109E, (S,E)-N-((4-((3-chloro-1-ethyl-1H-pyrazol-4-yl)sulfonyl)-6-(2-(3-chloropyridin-2-yl)vinyl)-3,4-dihydro-2H-benzo[b][1,4]-oxazin-2-yl)methyl)acetamide]			EC50 [1, 3]: 500 to 5000 nM; Gal4-RORγ Assay Max Response [1, 3]: ** (a value in the range of greater than 90 to 150); EC50 ([2]; RORγ-LBD TR-FRET assay): < 500 nM; TR-FRET Assay Max Response ([2]; RORγ-LBD TR-FRET assay): **** (a value greater than 200)
COC(=O)CC[C@H]1CN(S(=O)(=O)c2cccc(C(F)(F)F)c2C)c2cc(/C=C(\C)c3c(F)cccc3Cl)ccc2O1 [Example 86AN, (S,E)-methyl 3-(6-(2-(2-chloro-6-fluorophenyl)prop-1-en-1-yl)-4-((2-methyl-3-(trifluoromethyl)-phenyl)sulfonyl)-3,4-dihydro-2H-benzo[b][1,4]oxazin-2-yl)propanoate]	500 to 5000	< 500	
CCOc1ncc(Cl)cc1S(=O)(=O)N1C[C@H](CCC(=O)O)Oc2ccc(/C=C(\C)c3c(F)cccc3Cl)cc21 [Example 68, (S,E)-3-(4-((5-Chloro-2-ethoxypyridin-3-yl)sulfonyl)-6-(2-(2-chloro-6-fluorophenyl)prop-1-en-1-yl)-3,4-dihydro-2H-benzo[b][1,4]oxazin-2-yl)propanoic acid]	500 to 5000	< 500	
C/C(=C\c1cc2c(cc1C)O[C@@H](CCC(=O)O)CN2S(=O)(=O)c1cccc(C(F)(F)F)c1)c1c(F)cccc1Cl [Example 56, (S,E)-3-(6-(2-(2-Chloro-6-fluorophenyl)prop-1-en-1-yl)-7-methyl-4-((3-(trifluoromethyl)phenyl)sulfonyl)-3,4-dihydro-2H-benzo[b][1,4]oxazin-2-yl)propanoic acid]	> 10000	< 500	
O=C(O)CC[C@H]1CN(S(=O)(=O)c2cccc(C(F)(F)F)c2)c2cc(/C=C/c3ccncn3)ccc2O1 [Example 89CC, (S,E)-3-(6-(2-(pyrimidin-4-yl)vinyl)-4-((3-(trifluoromethyl)-phenyl)sulfonyl)-3,4-dihydro-2H-benzo[b][1,4]oxazin-2-yl)propanoic acid]	> 10000	> 10000	
C[C@@H]1[C@H](O)Cc2ccc(/C=C/c3c(F)cccc3Cl)cc2N1S(=O)(=O)c1cccc(C(F)(F)F)c1 (racemic) [Example 170, (2R,3R)-7-((E)-2-Chloro-6-fluorostyryl)-2-methyl-1-((3-(trifluoromethyl)phenyl)sulfonyl)-1,2,3,4-tetrahydroquinolin-3-ol]			EC50 [1, 3]: 500 to 5000 nM; Gal4-RORγ Assay Max Response [1, 3]: *** (a value in the range of greater than 150 to 200); EC50 ([2]; RORγ-LBD TR-FRET assay): < 500 nM; TR-FRET Assay Max Response ([2]; RORγ-LBD TR-FRET assay): *** (a value in the range of greater than 150 to 200)
